From patent publication US20230293526A1, “METHOD FOR TREATING CANCER WITH A REVERSE TRANSCRIPTASE INHIBITOR” (PrimeFour Therapeutics, Inc., priority 2020, published 2023)

How the values were obtained:
Assay in all cases: Cell proliferation CellTiterGlo Ex.2
Type in all cases: cell-based
NCI-H2286 = conditions: Homo sapiens; NCI-H2286 (Lung), 72 h
Procedure: (§1) A dose response relationship on cell proliferation was assessed for Compound 13 on 140 tumor cell lines. Briefly, compound treatment of cells started one day after seeding with a final DMSO concentration of 0.100, and was performed by nanodrop-dispensing using a Tecan Dispenser. 0.10% DMSO (solvent) and Staurosporine (10 μM) served as high control (10000 viability) and low control (000 viability), respectively. Compound 13 was tested at 10, 3, 1, 0.3, 0.1, 0.03, 0.01, and 0.003 μM.
(§2) Cells were cultured in the appropriate media. For the assays, cells were seeded in white cell culture-treated flat and clear bottom multiwell plates and incubated at 37° C. overnight before compound was added. After incubation for 72 h at 37° C. at 5% or 10% CO2 dependent on the medium, cell plates were equilibrated to room temperature for one hour, CellTiterGlo reagent (Promega) was added and luminescence was measured approximately an hour later using a luminometer.
(§3) Raw data were converted into percent cell viability relative to the high and low control, which were set to 10000 and 000, respectively.

Jurkat = conditions: Homo sapiens; Jurkat (Blood), 72 h
Procedure: as §1, §2, §3

MOLT-4 = conditions: Homo sapiens; MOLT-4 (Blood), 72 h
Procedure: as §1, §2, §3

RERF-LC-Ad2 = RERF-LC-Ad2 (Lung), 72 h
Procedure: as §1, §2, §3

MKN-1 = conditions: Homo sapiens; MKN-1 (Stomach), 72 h
Procedure: as §1, §2, §3

JIMT-1 = conditions: Homo sapiens; JIMT-1 (Breast), 72 h
Procedure: as §1, §2, §3

OVCAR-3 = conditions: Homo sapiens; OVCAR-3 (Ovary), 72 h
Procedure: as §1, §2, §3

HCT116 = conditions: Homo sapiens, HCT-116; HCT116 (Colon), 72 h
Procedure: as §1, §2, §3

P31/FUJ = conditions: Homo sapiens; P31/FUJ (Blood), 72 h
Procedure: as §1, §2, §3

NCI-H1437 = conditions: Homo sapiens; NCI-H1437 (Lung), 72 h
Procedure: as §1, §2, §3

HCC38 = conditions: Homo sapiens; HCC38 (Breast), 72 h
Procedure: as §1, §2, §3

U87MG = conditions: Homo sapiens, U-87 MG; U87MG (Brain), 72 h
Procedure: as §1, §2, §3

EFM-192A = EFM-192A (Breast), 72 h
Procedure: as §1, §2, §3

PC-9 = conditions: Homo sapiens; PC-9 (Lung), 72 h
Procedure: as §1, §2, §3

MCAS = MCAS (Ovary), 72 h
Procedure: as §1, §2, §3

U2OS = conditions: Homo sapiens; U2OS (Bone), 72 h
Procedure: as §1, §2, §3

NCI-H1563 = conditions: Homo sapiens; NCI-H1563 (Lung), 72 h
Procedure: as §1, §2, §3

HL-60 = conditions: Homo sapiens; HL-60 (Blood), 72 h
Procedure: as §1, §2, §3

SK-N-SH = conditions: Homo sapiens; SK-N-SH (Brain), 72 h
Procedure: as §1, §2, §3

KARPAS 299 = conditions: Homo sapiens; KARPAS 299 (Blood), 72 h
Procedure: as §1, §2, §3

SK-OV3 = conditions: Homo sapiens, SK-OV-3; SK-OV3 (Ovary), 72 h
Procedure: as §1, §2, §3

T-47D = conditions: Homo sapiens, T47D; T-47D (Breast), 72 h
Procedure: as §1, §2, §3

SNU-16 = conditions: Homo sapiens; SNU-16 (Stomach), 72 h
Procedure: as §1, §2, §3

SNU840 = conditions: SNU-840; SNU840 (Ovary), 72 h
Procedure: as §1, §2, §3

SK-LU-1 = conditions: Homo sapiens; SK-LU-1 (Lung), 72 h
Procedure: as §1, §2, §3

SNU-216 = SNU-216 (Stomach), 72 h
Procedure: as §1, §2, §3

NCI-H2009 = conditions: Homo sapiens; NCI-H2009 (Lung), 72 h
Procedure: as §1, §2, §3

Colo 205 = conditions: Homo sapiens; Colo 205 (Colon), 72 h
Procedure: as §1, §2, §3

A549 = conditions: Homo sapiens; A549 (Lung), 72 h
Procedure: as §1, §2, §3

HT-29 = conditions: Homo sapiens; HT-29 (Colon), 72 h
Procedure: as §1, §2, §3

ZR-75-1 = conditions: Homo sapiens; ZR-75-1 (Breast), 72 h
Procedure: as §1, §2, §3

BEN = BEN (Lung), 72 h
Procedure: as §1, §2, §3

T84 = conditions: Homo sapiens; T84 (Colon), 72 h
Procedure: as §1, §2, §3

AsPC-1 = conditions: Homo sapiens, ASPC1; AsPC-1 (Pancreas), 72 h
Procedure: as §1, §2, §3

Q: For C#C[C@]1(CO)O[C@@H](n2cnc3c(=O)[nH]c(N)nc32)C[C@@H]1O [compound 13], which IC50 (NCI-H2286) is on record?
A: The IC50 was 5.69 µM.

Q: What about the IC50 (Jurkat) of the same compound?
A: Its IC50 is 1.17 µM.

Q: And the IC50 (MOLT-4)?
A: Its IC50 is 0.51 µM.

Q: And the IC50 (RERF-LC-Ad2)?
A: Its IC50 is 2.58 µM.

Q: What about the IC50 (MKN-1) of the same compound?
A: The IC50 was 8.76 µM.

Q: What about the IC50 (JIMT-1) of the same compound?
A: Its IC50 is 7 µM.

Q: What about the IC50 (OVCAR-3) of the same compound?
A: The IC50 was 1.16 µM.

Q: What about the IC50 (HCT116) of the same compound?
A: Its IC50 is 5.84 µM.

Q: And the IC50 (P31/FUJ)?
A: Its IC50 is 0.4 µM.

Q: What about the IC50 (NCI-H1437) of the same compound?
A: The IC50 was over 10 µM.

Q: And the IC50 (HCC38)?
A: Its IC50 is 6.37 µM.

Q: And the IC50 (U87MG)?
A: The IC50 was 6.39 µM.

Q: What about the IC50 (EFM-192A) of the same compound?
A: The IC50 was over 10 µM.

Q: What about the IC50 (PC-9) of the same compound?
A: The IC50 was over 10 µM.

Q: And the IC50 (MCAS)?
A: Its IC50 is over 10 µM.

Q: And the IC50 (U2OS)?
A: The IC50 was 2.18 µM.

Q: What about the IC50 (NCI-H1563) of the same compound?
A: Its IC50 is over 10 µM.

Q: And the IC50 (HL-60)?
A: Its IC50 is 1.13 µM.

Q: What about the IC50 (SK-N-SH) of the same compound?
A: Its IC50 is 6.47 µM.

Q: And the IC50 (KARPAS 299)?
A: The IC50 was 4.07 µM.

Q: And the IC50 (SK-OV3)?
A: Its IC50 is 4 µM.

Q: And the IC50 (T-47D)?
A: The IC50 was over 10 µM.

Q: And the IC50 (SNU-16)?
A: The IC50 was 1.95 µM.

Q: What about the IC50 (SNU840) of the same compound?
A: The IC50 was 4.23 µM.

Q: What about the IC50 (SK-LU-1) of the same compound?
A: Its IC50 is over 10 µM.

Q: What about the IC50 (SNU-216) of the same compound?
A: The IC50 was 1.74 µM.

Q: And the IC50 (NCI-H2009)?
A: Its IC50 is 1.23 µM.

Q: What about the IC50 (Colo 205) of the same compound?
A: The IC50 was 1.5 µM.

Q: And the IC50 (A549)?
A: Its IC50 is over 10 µM.

Q: And the IC50 (HT-29)?
A: Its IC50 is over 10 µM.

Q: What about the IC50 (ZR-75-1) of the same compound?
A: The IC50 was over 10 µM.

Q: And the IC50 (BEN)?
A: The IC50 was over 10 µM.

Q: And the IC50 (T84)?
A: The IC50 was over 10 µM.

Q: What about the IC50 (AsPC-1) of the same compound?
A: The IC50 was over 10 µM.
